Measured values from patent US20100099132A1, “BACTERIAL GROWTH INDUCER” (priority 2007, published 2010).

How the values were obtained:
H. alvei = test: Effect of additions on synthesis of BuGro activity by H. alvei in M9 minimal media; type: cell-based, Hafnia alvei; settings: added at inoculum stage to H. alvei M9 culture: 5% supernatant (approx. 50 units/ml) or 100 μM norepinephrine; listed as NE
Procedure: Therefore, H. alvei was inoculated at 2×10^6 CFU/ml into M9 minimal media supplemented with 0.4% (w/v) glucose only (ie no addition, N/A), or with 5% culture supernatant from a previous H. alvei M9 culture (approximately 50 units/ml) (HA), or with 100 μM norepinephrine (NE). The cultures were incubated at 37° C. in a rotatory shaking incubator for 18 hrs (final cell density: 2.17, 2.32 and 2.39×10^8 CFU/ml). Bacteria were removed by centrifugation at 10,000 g for 15 minutes, and the resulting culture supernatant was sterilised by passage through a 0.2 micron stericup filter. The sterile supernatant was assayed at various volumes using test strain E. coli E2348/69 inoculated at 10^2 CFU/ml into serum-SAPI media and incubated statically for 17 hrs at 37° C. in a humidified CO2 incubator. Growth levels were measured using Luria agar and pour plate analysis.

E. coli = settings: serum-based media; Table 2, prior art WO 98/53047; cited from earlier work
[1] = Stability (heat, lyophilisation, storage, enzymes, pH); type: physicochemical
Procedure: BuGro™ and the individual activity Peaks 1, 2 and 3 are each stable to 60 minutes boiling when in a heat-stable buffer such as 50 mM Tris-HCl, pH 7.5 or phosphate buffered saline (PBS). All are fully stable to lyophilisation, and if maintained in a lyophilised form, crude BuGro™ is 90-95% stable to storage at 4° C. for at least 2 years.

| SMILES | effect on synthesis of BuGro activity (H. alvei) | effect on Bacxell synthesis (E. coli) | stability once synthesised in minimal media such as M9 [1] |
| --- | --- | --- | --- |
| NC[C@H](O)c1ccc(O)c(O)c1 [norepinephrine] | not induced | 4. Induced by norepinephrine, but also |  |
| O=C(N[C@H]1COC(=O)[C@@H](NC(=O)c2cccc(O)c2O)COC(=O)[C@@H](NC(=O)c2cccc(O)c2O)COC1=O)c1cccc(O)c1O [enterobactin] |  |  | highly unstable |
